Emax data for four compounds are collected here from ChEMBL document CHEMBL2034901, “Novel 3,6,7-substituted pyrazolopyrimidines as positive allosteric modulators for the hydroxycarboxylic acid receptor 2 (GPR109A)” (J Med Chem, 2012).

Assay [1] has as its target Hydroxycarboxylic acid receptor 2 (Homo sapiens) (UniProt Q8TDS4). The assay can be described thus: Positive allosteric activity at GPR109A in human HEK cells assessed as shift in EC50 of nicotinic acid at 3 uM pretreated for 30 mins measured after 90 mins by [35S]-GTPgammaS binding assay. The format is functional, cell-based. The conditions noted are these: HEK293.
Assay [2] has the same target. The assay is described as follows: Positive allosteric activity at GPR109A in human HEK cells assessed as shift in EC50 of nicotinic acid at 1 uM pretreated for 30 mins measured after 90 mins by [35S]-GTPgammaS binding assay. The conditions noted are these: HEK293. It is filed as functional, cell-based. (Binding of GTPγS marks nucleotide exchange on a G protein.)

Hydroxycarboxylic acid receptor 2 (Homo sapiens), sequence (Q8TDS4 whole entry): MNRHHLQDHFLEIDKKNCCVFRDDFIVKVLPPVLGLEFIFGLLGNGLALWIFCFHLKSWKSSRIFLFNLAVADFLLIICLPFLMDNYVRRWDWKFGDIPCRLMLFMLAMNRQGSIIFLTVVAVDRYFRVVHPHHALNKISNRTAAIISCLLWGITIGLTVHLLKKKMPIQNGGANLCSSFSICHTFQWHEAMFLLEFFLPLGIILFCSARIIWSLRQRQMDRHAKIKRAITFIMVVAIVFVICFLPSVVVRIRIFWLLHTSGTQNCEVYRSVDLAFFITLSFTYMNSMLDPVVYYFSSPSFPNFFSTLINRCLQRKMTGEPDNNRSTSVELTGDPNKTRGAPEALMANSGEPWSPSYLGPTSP

As for `Cc1c(C(=O)NCCNc2ccccc2)cnc2c(-c3ccc(C(C)C)cc3)cnn12`, the results for the Emax in assay [1] and in assay [2] were 129% and 120%, respectively.
Taken in the same sequence, the figures for `Cc1c(C(=O)NCCOc2ccccc2)cnc2c(-c3ccc(OC(C)C)cc3)cnn12` were 123% and 111%.
In the case of `CCc1c(C(=O)NCCOc2ccccc2)cnc2c(-c3ccc(C(C)C)cc3)cnn12`, the maximal effect (Emax) – broadly, the greatest response seen or fitted, relative to the assay's reference – came to 129% in assay [1] and 122% in assay [2].
For `Cc1c(C(=O)NCCOc2ccccc2)cnc2c(-c3ccc(Cl)c(Cl)c3)cnn12`, the Emax in assay [1] turned out to be 114%.
